Experiments:
[1] = test system: K1 and K2 lysine residues; assay: Additional culture data: levels of K1/K2 lysine residues of the antibody produced; assay type: cell-based; settings: included in culture media, compared to controls
CL320 CHO cells = assay: Growth (VCD), viability and antibody titer of the culture with supplemented feed; assay type: cell-based; settings: addition of 10 mg/L (so in the source)
Description: The carboxyl-terminal lysine residues of a model antibody produced by CHO cells were analyzed. […] […] On Day 5, 10 g/L cottonseed hydrolysate was added. VCD and viability were assessed, and cells were harvested on Day 10. The antibodies produced under the various conditions were evaluated for titer and C-terminal lysine by ion exchange chromatography.

Cl.N [NH4Cl, ammonium chloride] was tested, and the “levels of K1 and K2 lysine residues” value [1] was “increased”.
In the case of N=C(N)NCCC[C@H](N)C(=O)O [L-Arg, L-arginine], the effect on growth (CL320 CHO cells) is reported as “did not affect”, the effect on titers (CL320 CHO cells) is reported as “did not affect” and the effect on viability (CL320 CHO cells) is reported as “did not affect”.
In the case of NCCCC[C@H](N)C(=O)O [L-Lys, L-lysine], the effect on growth (CL320 CHO cells) is reported as “did not affect”, the effect on titers (CL320 CHO cells) is reported as “did not affect” and the effect on viability (CL320 CHO cells) is reported as “did not affect”.
